Assays:
Assay type in all cases: physicochemical
[1] = Dynamic vapor sorption (DVS) analysis
Protocol: DVS was measured using automated gravimetric vapor sorption analyzer equipped with Cahn D200 ultra-microbalance (DVS Intrinsic apparatus, Surface Measurement System Ltd., UK). First, a sample of 10-20 mg was put in a sample pan and hung on a hang-down wire, and measurement was started when the weight and humidity reached equilibrium. In one cycle, relative humidity was increased from 0% to 90% and then dropped back to 0%. Two cycles were carried out. The experiment was carried out in a way that the relative humidity was increased at 10% increment using a dm/dt method. The experiment was carried out at room temperature (25° C.)

[2] = Thermogravimetric analysis (TGA)
Protocol: The TGA was measured using Mettler Toledo TGA/DSC 1 module. About 4-8 mg of the sample is weighed and put into a 100 μL Al crucible (flat-bottomed aluminum crucibles). Then, TGA measurement is performed while the sample is heated from 30° C. to 350° C. at a rate of 10° C./min. During the measurement, nitrogen gas is supplied to the inside of the instrument at a rate of 80 mL/min to prevent the inflow of oxygen and other gases. Data collection and evaluation were performed using the software STARe.

[3] = Stability assessment by HPLC after storage; settings: for HPLC content, Accelerated condition (40° C./75% RH): open state; for HPLC content, Accelerated condition (40° C./75% RH) / HPLC content, Harsh condition (80° C.): in % (unit assumed); for HPLC content, Harsh condition (80° C.): sealed state, oven 80° C.
Protocol: About 10-30 mg of the sample was stored for 4 weeks in an open state under the accelerated condition (40° C., 75% RH) or in a sealed state under the harsh condition in an oven at 80° C. [table]

Q: Which “total weight gain observed between 0-90% RH” value ([1]; DVS, 25° C., 0-90% RH, two cycles) does the source give for CC(C)C(=O)N([C@H]1C[C@@H](C(=O)N2CCOCC2)N(C(=O)[C@@H]2CN(C(C)(C)C)C[C@H]2c2ccc(Cl)cc2)C1)[C@H]1CC[C@@H](C)CC1 [Example 1, N-((3S,5S)-1-((3S,4R)-1-(tert-butyl)-4-(4-chlorophenyl)pyrrolidine-3-carbonyl)-5-(morpholine-4-carbonyl)pyrrolidin-3-yl)-N-((1s,4R)-4-methylcyclohexyl)isobutyramide] here?
A: 0.2 % w/w

Q: And the “physical change after DVS (XRPD pattern compared with initial compound)” value ([1]; XRPD after DVS analysis)?
A: no physical change occurred

Q: And the “temperature up to which thermally stable” value ([2]; TGA, error of ±5° C.)?
A: up to 270 °C

Q: And the “weight loss in TGA before degradation” value ([2]; heated from 30° C. to 350° C. at 10° C./min)?
A: no weight loss was observed before degradation

Q: And the “chemical stability” value ([3]; accelerated (40° C., 75% RH) and harsh (80° C.) condition, 4 weeks)?
A: showed chemical stability for 4 weeks

Q: What about the “decrease in the content until week 4” value ([3]; accelerated condition (40° C., 75% RH) and closed state (harsh condition, 80° C.), until week 4) of the same compound?
A: about 1.3%

Q: And the “decrease in the content under the accelerated condition” value ([3]; accelerated condition, for 4 weeks)?
A: less than 1%

Q: What about the HPLC content, Initial ([3]; initial, before storage) of the same compound?
A: 97.8%

Q: What about the “HPLC content, Accelerated condition (40° C./75% RH)” value (“HPLC content … (40° C./75% RH)” below) ([3]; Day 3) of the same compound?
A: 97.51

Q: And the “HPLC content … (40° C./75% RH)” value ([3]; Week 1)?
A: 96.64

Q: And the “HPLC content … (40° C./75% RH)” value ([3]; Week 2)?
A: 97.73

Q: And the “HPLC content … (40° C./75% RH)” value ([3]; Week 4)?
A: 97.47

Q: And the “HPLC content, Harsh condition (80° C.)” value ([3]; Day 3)?
A: 97.46

Q: And the “HPLC content, Harsh condition (80° C.)” value ([3]; Week 1)?
A: 97.34

Q: What about the “HPLC content, Harsh condition (80° C.)” value ([3]; Week 2) of the same compound?
A: 96.94

Q: What about the “HPLC content, Harsh condition (80° C.)” value ([3]; Week 4) of the same compound?
A: 96.47

From patent US20240043407A1, “CRYSTALLINE FORM I OF MELANOCORTIN RECEPTOR AGONIST COMPOUND AND METHOD FOR PREPARING SAME” (LG CHEM, LTD., priority 2020, published 2024)
